# Experimental data from a melting point compilation (Tetko et al.; mined from patent text by program, amines drawn as free bases though some values may be those of a salt).
row,SMILES,melting point [°C]
1,CN1Cc2c(I)ncn2-c2ccccc2C1=O,174 to 176
2,CC(C)(C)NC(=O)N(CCc1ccccc1)CC(O)C(Cc1ccccc1)NC(=O)C(CC(N)=O)NC(=O)c1ccc2ccccc2n1 (stereo unspecified),139 to 140
3,Cn1ncc2c1-c1c(Sc3ccccn3)sc(C(N)=O)c1CC2,234 to 236
4,CCCc1c(C(=O)C(C)C)c2ccc(C(=O)O)cc2n1Cc1ccc(F)cc1Cl,243 to 244
5,O=C(CCc1c(C=C2C(=O)Nc3ccccc32)[nH]c2c1CCCC2)NCCN1CCOCC1,256 to 258
6,Cn1c(CO)nc2cc(Cl)cnc21,141 to 142
7,CC1Oc2ccc(CN3CC=C(c4ccccc4)CC3)cc2NC1=O (stereo unspecified),248 to 255
8,COc1cc(-c2nc(C)c(C(C)=NNC(N)=O)s2)cc(OC)c1OC,240 to 242
9,CCCCCC(O)CCn1[nH]c(=O)n(C)c1=O (stereo unspecified),85 to 88
10,Cc1oc(-c2ccco2)nc1COc1ccc(COc2nn(Cc3ccccc3)cc2C(=O)O)cn1,151 to 152
11,CCN(CC)C(=O)N(C1CCCCC1)C1CCN(C(=O)C(Cc2ccc(Cl)cc2)NC2CCNCC2)CC1 (stereo unspecified),> 220
12,CC1(C)[C@@H](C=C2CC2)[C@@H]1C(=O)O (relative stereo),85
13,O=C(CCNC(=O)OCc1ccccc1)NCCSC(=O)c1ccccc1,115 to 118
14,Cc1cc(C)cc(COC2CCCCC2(N)c2ccccc2)c1 (stereo unspecified),75 to 78
15,CN1CCN(Cc2ccccc2F)C(C2=NCCN2)C1 (stereo unspecified),160 to 162
16,O=C(CCl)Nc1cc(C(=O)NC(CO)CO)cc(C(=O)NC(CO)CO)c1,222 to 224
17,O=C(Nc1ccc(Oc2ccccc2)cc1)N1CCN(c2cc(C(F)(F)F)nc3ccccc23)CC1,203 to 204
18,NCCCn1ccc2cc(NC(=O)c3nc4ccc(Cl)cc4n3Cc3ccccc3)ccc21,106 to 108
19,c1ccc(N2CCN(CCc3nnn[nH]3)CC2)cc1,190 to 194
20,O=C1NCC(c2ccco2)SCC1N1C(=O)c2ccccc2C1=O (stereo unspecified),235
21,COc1ccc2c(c1)C(N=Cc1cc(OC)c(OC)cc1[N+](=O)[O-])CCO2 (stereo unspecified),143 to 145
22,O=CNC1(c2ccccc2)CCN(Cc2ccccc2)CC1,140
23,C#CCC1(O)CCCCC1,53 to 54
24,c1ccc(OCC2CCN(CCCOc3cccc4[nH]ccc34)CC2)cc1,118 to 119
25,COc1cc(COc2nn(-c3ccccc3)cc2/C=C/C(=O)N2CCOCC2)ccc1OCc1nc(-c2ccco2)oc1C,180 to 181
26,O=C(C=Cc1ccc(OC(F)(F)F)cc1)C=Cc1ccc(OC(F)(F)F)cc1,112 to 115
27,NC1CC(c2c[nH]c3ccc(CC4COC(=O)N4)cc23)C1 (stereo unspecified),95 to 100
28,COC(=O)Cc1nc(-c2cc(C(C)(C)C)c(O)c(C(C)(C)C)c2)oc1C,121 to 123
29,CC(C)(C)c1cc(Cc2nc3cc(Cl)cc(Br)c3o2)cc(C(C)(C)C)c1O,133 to 136

# Continued, values first:
row,melting point [°C],SMILES
1,158,CON(C)C(=O)c1cc(-n2c(=O)cc(C(F)(F)F)n(C)c2=O)c(F)cc1Cl
2,109 to 110,COc1cc(C(C)(C)CNC(=O)c2ccccc2)cc2c1OC(C)(C)C2
3,146 to 149,CC1C(=O)N(c2cc(Cl)cc(Cl)c2)CS1=O (stereo unspecified)
4,70 to 73,C#CCC(Oc1cccc(C)c1C)C1=NCCN1 (stereo unspecified)
5,173 to 175,CSc1nn(C)c2ccccc2c1=O
6,112 to 114,CCOC(=O)Nc1ccc(CCBr)c(Cl)c1
7,91 to 92,CCCc1cc(Cn2c(=O)ccc3c(CC)nc(CC)cc32)ccc1Oc1ccccc1CC(=O)OC
8,157 to 160,COCOc1cc(Cl)ccc1-c1cc(-c2cccc(NC(=O)Cn3ccnc3)c2)c(C#N)c(NC(=O)c2ccco2)n1
9,232 to 234,O=C(c1cccc([N+](=O)[O-])c1)n1nc(O)c2ccccc21
10,< 80,CC(C(=O)Nc1ccc(-n2nc(C(F)(F)F)cc2C(F)(F)F)cc1)c1ccc(C(=O)c2cccs2)cc1 (stereo unspecified)
11,153 to 155,CC(=O)c1ccc(NS(C)(=O)=O)c(C(=O)Nc2ccc(F)cc2F)c1
12,166 to 168,CCOc1cc(C(O)CS(C)(=O)=O)cc(OCC)c1N (stereo unspecified)
13,132 to 135,CC(C)(C)OC(=O)/C(=C/c1ccccc1)C(=O)c1cc2ccccc2cc1O
14,295,O=c1ccc2ccc(Br)cc2[nH]1
15,157 to 160,CC(C)c1cc(C(C)C)c(CC(=O)NS(=O)(=O)Oc2c(C(C)C)cc(C=CC#N)cc2C(C)C)c(C(C)C)c1
16,124 to 125,C=C1COc2ccc(C(C)=O)cc2C(S(=O)(=O)c2ccccc2)C1 (stereo unspecified)
17,83 to 84,CCOC(=O)COc1ccc(NS(C)(=O)=O)cc1C
18,123 to 124,CCOC(=O)C=Cc1cc(N2C(=O)C3C4CC4CN3C2=O)c(F)cc1Cl (stereo unspecified)
19,123 to 125,CCc1nnc(NC(=O)C(c2ccccc2)c2ccccc2)o1
20,117 to 118,CC1CCN2C(=O)c3ccccc3NC(=O)C12 (stereo unspecified)
21,165,Cc1nc2ccccc2c(=O)n1CCN1CCC(C(=O)c2ccc(F)cc2)CC1

row,melting point [°C],SMILES
1,190 to 192,CCOC(=O)N(c1ccc(Cl)cc1)c1ccccc1-n1nc(C(=O)O)nc1CCl
2,134 to 135,Cc1ccc(C(C)N(O)C(N)=O)cc1 (stereo unspecified)
3,192 to 195,C[C@H](NC(=O)c1ccc(Cn2nnc(-c3ccc(OC(=O)C(C)(C)C)cc3)n2)cc1)C(=O)O
4,260 to 261,CCn1c(C(C#N)c2cc(C)cc(C#N)c2)c(C(C)C)c(=O)[nH]c1=O (stereo unspecified)
5,220 to 222,CNC(=O)NC1CCCCc2sccc21 (stereo unspecified)
6,> 300,CC(C)(C)OC(=O)Cn1c(C(=O)O)cc2cc(NC(=O)OC(C)(C)C)ccc21
7,131 to 133,Cc1cccc(C)c1O[C@@H]1CCNC[C@H]1O (relative stereo)
8,232 to 234,Cc1ccn2nc(S(=O)(=O)Nc3c(Cl)cccc3Cl)nc2c1
9,57 to 59,CC1C(=O)Oc2cc(N3CCCCCC3)ccc21 (stereo unspecified)
10,184 to 189,CC(C)NS(=O)(=O)c1cccc(F)c1C#N
11,97 to 103,CCCCOC(=O)c1cccc(CCN(C)CCCC(C#N)(c2ccc(OC)c(OC)c2)C(C)C)c1 (stereo unspecified)
12,133 to 135,CS(=O)(=O)c1ccc2ccn(C3CCN(CCc4ccc(F)cc4)CC3)c2c1
13,215 to 217,O=[N+]([O-])c1oc2ccc(-c3nnn[nH]3)cc2c1-c1ccccc1
14,175 to 177,Cc1ccc(-c2nc(-c3ccc(C(=O)NCCCBr)cc3)cs2)cc1
15,162 to 165,CC(=O)Nc1nc(CCc2ccc(CO)cc2)cs1
16,149 to 150,CCOC(=O)C(NC(C)=O)c1csc(NC(C)=O)n1 (stereo unspecified)
17,114 to 116,COc1ccc(C(O)CCc2ccccc2O)cc1 (stereo unspecified)
18,118 to 119,COc1cc(CCC(=O)O)ccc1OCCCc1cn(-c2ccc(C(F)(F)F)cn2)nc1C(C)C
19,137 to 139,Cc1cc(C(=S)NCc2cccc([N+](=O)[O-])c2)c(OCC(=O)O)cc1F
20,142 to 145,CCOC(=O)COc1ccc(CCNC(=O)C[C@H]2O[C@H](c3cccc(OC)c3OC)c3cc(Cl)ccc3N(CC(C)(C)CO)C2=O)cc1
21,190 to 191,CCCCOc1ccc(C(=O)N[C@@H]2CCc3cccc(N4CCN(C)CC4)c3C2)cc1
